Source: patent US8541588B2, “Sulfonamide derivatives” (Pfizer Limited, priority 2009, dated 2013)

Target: T1, Nav1.7 (or SCN9A) channel; HEK cells stably transfected with hSCN9A (Homo sapiens, UniProt Q15858)
T1 construct: expressed in transfected cells
Test: Nav1.7 block, PatchXpress 7000 automated whole-cell voltage clamp, estimated IC50 (EIC50)
Type: cell-based
Details: estimated IC50; hSCN9A HEK cells, PatchXpress platform; Examples 283-814

T1 sequence (Q15858 whole entry): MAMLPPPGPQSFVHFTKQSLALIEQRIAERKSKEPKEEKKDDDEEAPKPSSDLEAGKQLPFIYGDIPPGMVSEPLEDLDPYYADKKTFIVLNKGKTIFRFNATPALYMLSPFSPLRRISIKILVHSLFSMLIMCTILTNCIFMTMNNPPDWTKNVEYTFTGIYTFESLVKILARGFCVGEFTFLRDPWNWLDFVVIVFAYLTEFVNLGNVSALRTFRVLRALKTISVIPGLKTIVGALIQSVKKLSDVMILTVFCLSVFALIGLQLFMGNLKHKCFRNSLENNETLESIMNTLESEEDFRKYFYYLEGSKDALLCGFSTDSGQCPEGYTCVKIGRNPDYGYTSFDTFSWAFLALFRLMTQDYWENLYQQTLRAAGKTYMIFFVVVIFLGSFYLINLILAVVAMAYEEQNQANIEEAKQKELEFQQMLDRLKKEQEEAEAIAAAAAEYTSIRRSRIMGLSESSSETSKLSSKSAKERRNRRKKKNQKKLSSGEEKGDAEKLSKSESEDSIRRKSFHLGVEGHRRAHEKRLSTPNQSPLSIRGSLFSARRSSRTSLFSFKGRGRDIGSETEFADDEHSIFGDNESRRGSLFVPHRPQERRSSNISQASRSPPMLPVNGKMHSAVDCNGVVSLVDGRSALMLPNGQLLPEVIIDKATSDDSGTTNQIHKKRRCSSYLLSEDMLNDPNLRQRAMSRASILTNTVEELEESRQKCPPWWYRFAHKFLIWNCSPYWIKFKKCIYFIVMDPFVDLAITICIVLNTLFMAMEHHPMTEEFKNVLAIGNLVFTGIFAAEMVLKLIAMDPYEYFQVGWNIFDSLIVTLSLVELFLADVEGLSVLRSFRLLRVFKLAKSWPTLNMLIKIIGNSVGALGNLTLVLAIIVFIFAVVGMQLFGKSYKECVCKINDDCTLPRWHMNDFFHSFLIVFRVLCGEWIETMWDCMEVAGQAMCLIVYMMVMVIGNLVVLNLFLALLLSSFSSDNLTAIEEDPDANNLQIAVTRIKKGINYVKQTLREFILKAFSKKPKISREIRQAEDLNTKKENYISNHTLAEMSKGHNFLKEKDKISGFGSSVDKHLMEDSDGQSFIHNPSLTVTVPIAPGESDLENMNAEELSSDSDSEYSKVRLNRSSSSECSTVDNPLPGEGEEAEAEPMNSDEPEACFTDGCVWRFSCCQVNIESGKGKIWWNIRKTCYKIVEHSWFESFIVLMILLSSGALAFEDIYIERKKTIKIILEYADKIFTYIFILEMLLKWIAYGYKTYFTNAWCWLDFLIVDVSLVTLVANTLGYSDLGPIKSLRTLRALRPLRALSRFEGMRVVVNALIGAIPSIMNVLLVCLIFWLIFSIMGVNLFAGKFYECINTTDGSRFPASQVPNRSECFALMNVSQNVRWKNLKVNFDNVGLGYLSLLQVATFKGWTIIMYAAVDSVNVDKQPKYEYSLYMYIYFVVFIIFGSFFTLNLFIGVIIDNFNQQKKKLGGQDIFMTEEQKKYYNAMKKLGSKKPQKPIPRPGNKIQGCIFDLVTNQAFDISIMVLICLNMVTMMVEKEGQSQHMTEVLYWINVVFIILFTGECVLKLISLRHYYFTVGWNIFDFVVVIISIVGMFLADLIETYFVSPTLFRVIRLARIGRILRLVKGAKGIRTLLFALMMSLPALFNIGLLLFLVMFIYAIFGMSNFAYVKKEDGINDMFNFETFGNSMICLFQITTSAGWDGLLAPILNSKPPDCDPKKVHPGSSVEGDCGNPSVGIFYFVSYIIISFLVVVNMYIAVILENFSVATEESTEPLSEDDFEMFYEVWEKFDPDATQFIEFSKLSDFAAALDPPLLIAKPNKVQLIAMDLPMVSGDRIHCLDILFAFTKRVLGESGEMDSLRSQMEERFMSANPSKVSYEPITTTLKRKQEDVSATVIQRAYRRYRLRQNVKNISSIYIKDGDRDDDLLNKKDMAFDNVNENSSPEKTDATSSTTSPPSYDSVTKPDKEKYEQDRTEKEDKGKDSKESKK

Structure (SMILES): N#Cc1cc(S(=O)(=O)Nc2ncc(Cl)s2)ccc1Oc1ccc(F)cc1-c1ccnc(N)c1 [Example 584, 4-[2-(2-Aminopyridin-4-yl)-4-fluorophenoxy]-N-(5-chloro-1,3-thiazol-2-yl)-3-cyanobenzenesulfonamide]
- IC50: 97 nM

Structure (SMILES): N#Cc1cc(S(=O)(=O)Nc2ncc(Cl)s2)ccc1Oc1ccc(Cl)cc1-c1ccnc(CO)c1 [Example 586, 4-{4-Chloro-2-[2-(hydroxymethyl)pyridin-4-yl]phenoxy}-N-(5-chloro-1,3-thiazol-2-yl)-3-cyanobenzenesulfonamide]
- IC50: 140 nM

Structure (SMILES): N#Cc1cc(S(=O)(=O)Nc2ncc(Cl)s2)ccc1Oc1ccc(F)cc1-c1ccc(N)nc1 [Example 587, 4-[2-(6-Aminopyridin-3-yl)-4-fluorophenoxy]-N-(5-chloro-1,3-thiazol-2-yl)-3-cyanobenzenesulfonamide]
- IC50: 200 nM

Structure (SMILES): N#Cc1cc(S(=O)(=O)Nc2ncc(Cl)s2)ccc1Oc1ccc(Cl)cc1C1COC1 [Example 588, 4-(4-Chloro-2-oxetan-3-ylphenoxy)-N-(5-chloro-1,3-thiazol-2-yl)-3-cyanobenzenesulfonamide]
- IC50: 120 nM

Structure (SMILES): N#Cc1cc(S(=O)(=O)Nc2ncc(Cl)s2)ccc1Oc1ccc(F)cc1-c1ccn[nH]1 [Example 589, N-(5-Chloro-1,3-thiazol-2-yl)-3-cyano-4-[4-fluoro-2-(1H-pyrazol-5-yl)phenoxy]benzenesulfonamide]
- IC50: 510 nM

Structure (SMILES): N#Cc1cc(S(=O)(=O)Nc2ncc(Cl)s2)ccc1Oc1ccc(C(F)(F)F)cc1-c1cn[nH]c1 [Example 590, N-(5-Chloro-1,3-thiazol-2-yl)-3-cyano-4-[2-(1H-pyrazol-4-yl)-4-(trifluoromethyl)phenoxy]benzenesulfonamide]
- IC50: 53 nM

Structure (SMILES): N#Cc1cc(S(=O)(=O)Nc2ncc(Cl)s2)ccc1Oc1ccc(OC(F)(F)F)cc1-c1cn[nH]c1 [Example 591, N-(5-Chloro-1,3-thiazol-2-yl)-3-cyano-4-[2-(1H-pyrazol-4-yl)-4-(trifluoromethoxy)phenoxy]benzenesulfonamide]
- IC50: 73 nM

Structure (SMILES): N#Cc1cc(S(=O)(=O)Nc2ncc(Cl)s2)ccc1Oc1ccc(Cl)cc1C1CCNCC1 [Example 593, 4-(4-Chloro-2-piperidin-4-ylphenoxy)-N-(5-chloro-1,3-thiazol-2-yl)-3-cyanobenzenesulfonamide]
- IC50: 35 nM

Structure (SMILES): N#Cc1cc(S(=O)(=O)Nc2ncc(Cl)s2)ccc1Oc1ccc(Cl)cc1C1CNC1 [Example 594, 4-(2-Azetidin-3-yl-4-chlorophenoxy)-N-(5-chloro-1,3-thiazol-2-yl)-3-cyanobenzenesulfonamide]
- IC50: 160 nM

Structure (SMILES): N#Cc1cc(S(=O)(=O)Nc2ncc(Cl)s2)ccc1Oc1ccc(Cl)cc1-c1ccnn1C(F)F [Example 595, 4-{4-Chloro-2-[1-(difluoromethyl)-1H-pyrazol-5-yl]phenoxy}-N-(5-chloro-1,3-thiazol-2-yl)-3-cyanobenzenesulfonamide]
- IC50: 80 nM

Structure (SMILES): Cn1nccc1-c1cc(F)ccc1Oc1ccc(S(=O)(=O)Nc2ncc(Cl)s2)cc1C#N [Example 596, N-(5-Chloro-1,3-thiazol-2-yl)-3-cyano-4-[4-fluoro-2-(1-methyl-1H-pyrazol-5-yl)phenoxy]benzenesulfonamide]
- IC50: 79 nM

Structure (SMILES): Cn1nccc1-c1cc(Cl)ccc1Oc1ccc(S(=O)(=O)Nc2ncc(Cl)s2)cc1C#N [Example 597, 4-[4-Chloro-2-(1-methyl-1H-pyrazol-5-yl)phenoxy]-N-(5-chloro-1,3-thiazol-2-yl)-3-cyanobenzenesulfonamide]
- IC50: 20 nM

Structure (SMILES): N#Cc1cc(S(=O)(=O)Nc2cscn2)ccc1Oc1ccc(C(F)(F)F)cc1-c1cn[nH]c1 [Example 598, 3-cyano-4-[2-(1H-pyrazol-4-yl)-4-(trifluoromethyl)phenoxy]-N-1,3-thiazol-4-ylbenzenesulfonamide]
- IC50: 230 nM

Structure (SMILES): N#Cc1cc(S(=O)(=O)Nc2cscn2)ccc1Oc1ccc(OC(F)(F)F)cc1-c1cn[nH]c1 [Example 599, 3-cyano-4-[2-(1H-pyrazol-4-yl)-4-(trifluoromethoxy)phenoxy]-N-1,3-thiazol-4-ylbenzenesulfonamide]
- IC50: 300 nM

Structure (SMILES): Cc1scnc1NS(=O)(=O)c1ccc(Oc2ccccc2-c2ccccc2)c(C#N)c1 [Example 600, 4-(biphenyl-2-yloxy)-3-cyano-N-(5-methyl-1,3-thiazol-4-yl)benzenesulfonamide]
- IC50: 15000 nM

Structure (SMILES): Cn1nccc1-c1cc(C(F)(F)F)ncc1Oc1ccc(S(=O)(=O)Nc2cscn2)cc1C#N [Example 601, 3-cyano-4-{[4-(1-methyl-1H-pyrazol-5-yl)-6-(trifluoromethyl)pyridin-3-yl]oxy}-N-1,3-thiazol-4-ylbenzenesulfonamide]
- IC50: 940 nM

Structure (SMILES): Cn1nccc1-c1cc(Cl)ccc1Oc1ccc(S(=O)(=O)Nc2ncsc2F)cc1C#N [Example 602, 4-[4-chloro-2-(1-methyl-1H-pyrazol-5-yl)phenoxy]-3-cyano-N-(5-fluoro-1,3-thiazol-4-yl)benzenesulfonamide]
- IC50: 1500 nM

Structure (SMILES): O=S(=O)(Nc1cscn1)c1cc(F)c(Oc2ccc(Cl)cc2C2CNC2)cc1F [Example 604, 4-(2-azetidin-3-yl-4-chlorophenoxy)-2,5-difluoro-N-1,3-thiazol-4-ylbenzenesulfonamide]
- IC50: 820 nM

Structure (SMILES): O=S(=O)(Nc1cscn1)c1cc(F)c(Oc2ccc(Cl)cc2-c2cn[nH]c2)cc1F [Example 605, 4-[4-chloro-2-(1H-pyrazol-4-yl)phenoxy]-2,5-difluoro-N-1,3-thiazol-4-ylbenzenesulfonamide]
- IC50: 100 nM

Structure (SMILES): Cn1nccc1-c1cc(Cl)ccc1Oc1cc(F)c(S(=O)(=O)Nc2cscn2)cc1F [Example 606, 4-[4-chloro-2-(1-methyl-1H-pyrazol-5-yl)phenoxy]-2,5-difluoro-N-1,3-thiazol-4-ylbenzenesulfonamide]
- IC50: 130 nM

Structure (SMILES): Cn1cc(-c2cc(OC(F)(F)F)ccc2Oc2cc(F)c(S(=O)(=O)Nc3cscn3)cc2F)cn1 [Example 607, 2,5-difluoro-4-[2-(1-methyl-1H-pyrazol-4-yl)-4-(trifluoromethoxy)phenoxy]-N-1,3-thiazol-4-ylbenzenesulfonamide]
- IC50: 2800 nM

Structure (SMILES): Cn1nccc1-c1cc(Cl)ccc1Oc1ccc(S(=O)(=O)Nc2ccc(F)cn2)cc1C#N [Example 608, 4-[4-chloro-2-(1-methyl-1H-pyrazol-5-yl)phenoxy]-3-cyano-N-(5-fluoropyridin-2-yl)benzenesulfonamide]
- IC50: 400 nM

Structure (SMILES): Cn1nc(C(F)(F)F)cc1-c1ccc(Oc2ccc(S(=O)(=O)Nc3ncc(F)s3)cc2F)cc1 [Example 609, 3-fluoro-N-(5-fluoro-1,3-thiazol-2-yl)-4-{4-[1-methyl-3-(trifluoromethyl)-1H-pyrazol-5-yl]phenoxy}benzenesulfonamide]
- IC50: 1700 nM

Structure (SMILES): Cc1cc(C)n(-c2ccc(Oc3ccc(S(=O)(=O)Nc4nccs4)c(F)c3)cc2)n1 [Example 610, 4-[4-(3,5-Dimethyl-1H-pyrazol-1-yl)phenoxy]-2-fluoro-N-1,3-thiazol-2-ylbenzenesulfonamide]
- IC50: >1000 nM

Structure (SMILES): O=S(=O)(Nc1cscn1)c1ccc(Oc2ccc(Cl)cc2-c2cn[nH]c2)c(F)c1 [Example 611, 4-[4-chloro-2-(1H-pyrazol-4-yl)phenoxy]-3-fluoro-N-1,3-thiazol-4-ylbenzenesulfonamide]
- IC50: 520 nM

Structure (SMILES): O=S(=O)(Nc1cscn1)c1ccc(Oc2ccc(OC(F)(F)F)cc2-c2cn[nH]c2)c(F)c1 [Example 612, 3-fluoro-4-[2-(1H-pyrazol-4-yl)-4-(trifluoromethoxy)phenoxy]-N-1,3-thiazol-4-ylbenzenesulfonamide]
- IC50: 540 nM

Structure (SMILES): Cn1nccc1-c1cc(F)ccc1Oc1cc(F)c(S(=O)(=O)Nc2ncc(Cl)s2)cc1F [Example 613, N-(5-chloro-1,3-thiazol-2-yl)-2,5-difluoro-4-[4-fluoro-2-(1-methyl-1H-pyrazol-5-yl)phenoxy]benzenesulfonamide]
- IC50: 110 nM

Structure (SMILES): O=S(=O)(Nc1ncc(Cl)s1)c1cc(F)c(Oc2ccc(F)cc2-c2cn[nH]c2)cc1F [Example 614, N-(5-chloro-1,3-thiazol-2-yl)-2,5-difluoro-4-[4-fluoro-2-(1H-pyrazol-4-yl)phenoxy]benzenesulfonamide]
- IC50: 180 nM

Structure (SMILES): Cn1nccc1-c1ccc(C#N)cc1Oc1cc(F)c(S(=O)(=O)Nc2ncc(Cl)s2)cc1F [Example 615, N-(5-chloro-1,3-thiazol-2-yl)-4-[5-cyano-2-(1-methyl-1H-pyrazol-5-yl)phenoxy]-2,5-difluorobenzenesulfonamide]
- IC50: 2000 nM

Structure (SMILES): N#Cc1cncc(-c2cc(C(F)(F)F)ccc2Oc2cc(F)c(S(=O)(=O)Nc3ncns3)cc2Cl)c1 [Example 616, 5-chloro-4-[2-(5-cyanopyridin-3-yl)-4-(trifluoromethyl)phenoxy]-2-fluoro-N-1,2,4-thiadiazol-5-ylbenzenesulfonamide]
- IC50: 280 nM

Structure (SMILES): Nc1cccc(-c2cc(F)ccc2Oc2cc(F)c(S(=O)(=O)Nc3ncns3)cc2Cl)n1 [Example 617, 4-[2-(6-aminopyridin-2-yl)-4-fluorophenoxy]-5-chloro-2-fluoro-N-1,2,4-thiadiazol-5-ylbenzenesulfonamide]
- IC50: 30 nM

Structure (SMILES): Nc1ncccc1-c1cc(Cl)ccc1Oc1cc(F)c(S(=O)(=O)Nc2ncns2)cc1Cl [Example 618, 4-[2-(2-aminopyridin-3-yl)-4-chlorophenoxy]-5-chloro-2-fluoro-N-1,2,4-thiadiazol-5-ylbenzenesulfonamide]
- IC50: 11 nM

Structure (SMILES): O=S(=O)(Nc1ncns1)c1cc(Cl)c(Oc2ccc(Cl)cc2C2CNC2)cc1F [Example 619, 4-(2-azetidin-3-yl-4-chlorophenoxy)-5-chloro-2-fluoro-N-1,2,4-thiadiazol-5-ylbenzenesulfonamide]
- IC50: 45 nM

Structure (SMILES): O=S(=O)(Nc1ncns1)c1cc(Cl)c(Oc2ccc(F)cc2-c2ccn[nH]2)cc1F [Example 620, 5-chloro-2-fluoro-4-[4-fluoro-2-(1H-pyrazol-5-yl)phenoxy]-N-1,2,4-thiadiazol-5-ylbenzenesulfonamide]
- IC50: 4.8 nM

Structure (SMILES): Cn1nccc1-c1cc(F)ccc1Oc1cc(F)c(S(=O)(=O)Nc2ncns2)cc1Cl [Example 621, 5-chloro-2-fluoro-4-(4-fluoro-2-(1-methyl-1H-pyrazol-5-yl)phenoxy)-N-(1,2,4-thiadiazol-5-yl)benzenesulfonamide]
- IC50: 75 nM
